Data as given in article PMC11083148, “Structure–Activity Relationship Studies on Highly Functionalized Pyrazole Hydrazones and Amides as Antiproliferative and Antioxidant Agents” (International Journal of Molecular Sciences, 2024).

Tests used:
A549 = experiment: MTT assay, antiproliferative activity; format: cell-based; conditions: Homo sapiens, 48h, read-out: Mean Growth Percentage
Method: (§1) Pyrazole acylhydrazones 10–13 and amides 14–22 were tested by MTT assay to evaluate their antiproliferative and cytotoxicity properties against a panel of eight tumor cell lines and normal fibroblasts.
(§2) All reagents were purchased from EuroClone, Milan, Italy). The following cell lines were used for MTT assays: SKOV-3 (ovarian adenocarcinoma, ATCC, Manassas, VA, USA); MCF-7 (breast adenocarcinoma, Biologic Bank and Cell Factory, IRCCS Policlinico San Martino, Genoa, Italy); Hep-G2 (hepatocellular carcinoma, ATCC, Manassas, VA, USA); SK-MEL28 (skin melanoma, Biologic Bank and Cell Factory, IRCCS Policlinico San Martino, Genoa, Italy), GM-6114 (embryonic human fibroblast, ATCC, Manassas, VA, USA); MDA-MB231 (breast adenocarcinoma, Biologic Bank and Cell Factory, IRCCS Policlinico San Martino, Genoa, Italy); HeLa (cervical adenocarcinoma, Biologic Bank and Cell Factory, IRCCS Policlinico San Martino, Genoa, Italy); SK-BR3 (breast andenocarcinoma, Biologic Bank and Cell Factory, IRCCS Policlinico San Martino, Genoa, Italy); A549 (lung carcinoma, Biologic Bank and Cell Factory, IRCCS Policlinico San Martino, Genoa, Italy); HUVEC (Human Umbilical Vein Endothelial Cells, ATCC, Manassas, VA, USA). All cell lines were grown in their medium with 10% FBS, 2 mM Glutamine, and 1% penstrep and incubated at 37 °C in 5% CO2 in a humidified environment. The cell lines were plated in 96-well plates at an adequate number to reach 80–90% confluence at the end of the assay. 16 h after cell plating, a 10 mM DMSO stock solution of the compounds was diluted in growth medium and added at a final working concentration of 10 μM. After 48h of incubation, a 2 mg/mL PBS solution of MTT (3-(4,5-dimethyl-2-thiazolyl)-2,5-diphenyl-2H-tetrazolium bromide) was added (30 μL/well). After 4h, the supernatant was removed, and the Formazan precipitates were dissolved in DMSO (100 μL/well). The 96-well plates were incubated for 20 min, and absorbance was measured at 570 nm using a plate reader. The results are expressed as a percentage ratio over control samples (100%) in which the cells were incubated with the same amount of DMSO but without compounds. Each value is the mean of three independent experiments run in six replicates.

Hep-G2 = experiment: MTT assay, antiproliferative activity; format: cell-based; conditions: Homo sapiens, HepG2, 48h
Method: as §1, §2

MDA-MB231 = experiment: MTT assay, antiproliferative activity; format: cell-based; conditions: Homo sapiens, MDA-MB-231, 48h
Method: as §1, §2

SK-BR3 = experiment: MTT assay, antiproliferative activity; format: cell-based; conditions: Homo sapiens, SK-BR-3, 48h
Method: as §1, §2

HeLa = experiment: MTT assay, antiproliferative activity; format: cell-based; conditions: Homo sapiens, 10 µM, 48h, read-out: Mean Growth Percentage
Method: as §1, §2
(§3) Each IC50 value is the mean of three independent experiments run in duplicate.

MCF7 = experiment: MTT assay, antiproliferative activity; format: cell-based; conditions: Homo sapiens, 10 µM, 48h
Method: as §1, §2, §3

SKMEL28 = experiment: MTT assay, antiproliferative activity; format: cell-based; conditions: Homo sapiens, SK-MEL-28, 10 µM, 48h
Method: as §1, §2, §3

SKOV3 = experiment: MTT assay, antiproliferative activity; format: cell-based; conditions: Homo sapiens, SK-OV-3, 10 µM, 48h
Method: as §1, §2, §3

GM-6114 = experiment: MTT assay, cytotoxicity on normal fibroblasts; format: cell-based; conditions: human, 48 h, 10 µM
washed platelets [1] = experiment: Platelet aggregation (thrombin-induced, Born's method); format: cell-based; conditions: Homo sapiens, 0.1 U/mL thrombin, mean ± SD, read-out: IC50 Aggregation inhibition
Method: (§4) The antioxidant properties of acylhydrazones 10–13 and pyrazolyl amides 14–22 were tested by evaluating their inhibition of platelet aggregation and ROS production (Figure 3, Table S1). In fact, human platelets could represent a fast and low-cost biological model to screen compounds as anticancer, anti-inflammatory, and antiaggregating agents. Moreover, ROS production inhibition, related to human platelet aggregation, could provide a good indication of the anti-inflammatory and antioxidant properties of the newly synthesized compounds [47, 50, 51, 52]. N-acetylcysteine (NAC) and acetyl salicylic acid (ASA) were used as reference drugs for antioxidant and antiaggregant activities, respectively.
(§5) Freshly drawn venous blood from healthy volunteers from “Centro Trasfusionale” (IRCCS Policlinico San Martino, Genoa, Italy) was collected into a 130 mM aqueous trisodium citrate anticoagulant solution (9:1). The donors claimed to not have taken drugs known to interfere with platelet function during the two weeks prior to blood collection and gave their informed consent. Whole blood was centrifuged at 100× g for 20 min to afford platelet-rich plasma that was then spun at 1100× g for 15 min. The obtained pellet was washed once with a pH 5.2 ACD solution (75 mM trisodium citrate, 42 mM citric acid, and 136 mM glucose), centrifuged at 1100× g for 15 min, and then re-suspended in pH 7.4 Hepes buffer (145 mM NaCl, 5 mM KCl, 1 mM MgSO4, 10 mM glucose, and 10 mM HEPES).
Thrombin was purchased from Sigma-Aldrich/Merck Millipore. A DMSO solution of compounds 10–22 was diluted in saline immediately before each experiment and added to the washed platelets (3.0 × 10^8/mL) at 37 °C. After 3 min, 0.1 U/mL thrombin was added, and platelet aggregation was quantified according to Born’s method using a Bio-Data Aggregometer (Bio-Data Corporation, Horsham, PA, USA). The IC50 values were calculated as detailed above.

washed platelets [2] = experiment: ROS assay in platelets (DCFH-DA, thrombin-stimulated); format: cell-based, human; conditions: Homo sapiens, Platelet, 0.1 U/mL thrombin, mean ± SD, read-out: IC50 ROS production inhibition
Method: as §4, §5
2′,7′-Dichlorofluorescein diacetate (DCFH-DA) and thrombin were purchased from Sigma-Aldrich/Merck Millipore. DMSO solutions of 10–22 were diluted in saline immediately before each experiment. ROS production was quantified by DCFH-DA, a ROS-sensitive probe that yields, upon oxidation, the fluorescent adduct DCF that is trapped inside the cells. Briefly, washed platelets (1.0 × 10^8/mL), pre-incubated with saline solutions of 10–22 for 15 min at 37 °C, were stimulated by 0.1 U/mL thrombin. Incubation was stopped by cooling samples in an ice bath, and then samples were immediately analyzed in a Merck Millipore Bioscience Guava easyCyte flow cytometer (Merk Millipore, Burlington, MA, USA). The reported IC50 values represent the molar concentration of the compounds able to inhibit 50% of the maximal aggregation induced by the agonist and are calculated as the percentage inhibition of the maximal aggregation measured in the presence of the agent compared with the measure in a control sample containing saline, carried out under the same conditions. The IC50 values were extrapolated from nonlinear regression analysis of concentration–response curves (three points) using MS Excel software (Microsoft 365 suite). Each IC50 value is the mean of six independent experiments.

[3] = DPPH radical-scavenging activity; format: physicochemical; design: AA (%), percentage of antioxidant activity: concentration or dose not given beside the values; conditions: mean ± SD, n = 2
Method: The antioxidant activity of the representative compounds of the two series (namely, acylhydrazones 10b, 11a, 11d, 12d, 13d, and amides 14, 22) was measured in vitro using the 2,2-diphenyl-1-picrylhydrazyl (DPPH) assay. The results were calculated as Trolox equivalent and expressed as a percentage of antioxidant activity (AA) (Table 3). […] Derivatives 10b and 12d were endowed with the highest antioxidant activity, thus highlighting the relevance of both pyrazole N1 and acylhydrazone substituents on compounds’ radical scavenging properties.
Compounds 10b, 11a, 11d, 12d, 13d, 14, and 22 (ca. 3 mg) were dissolved in DMSO (1 mL), and then 100 µL of this solution was mixed with 3.9 mL of DPPH methanol solution (65 µM). Absorbance was measured at 517 nm after reacting for 30 min in the dark. The linear calibration curve was obtained using Trolox standards (ranging between 20 and 200 mg/L, R^2 = 0.9955). The result was calculated as Trolox equivalent in mg/L, and the percentage of antioxidant activity (AA%) was calculated from the ratio of decreasing absorbance of sample solution (A0 − As) to absorbance of blank DPPH solution (A0), as expressed in Equation (1). (1) AA%=A0−As/A0×100
All analyses were carried out in duplicate (n = 2), and values are given as means ± standard deviation (SD).

[4] = design: method as in PMID 32932211; conditions: ABTS scavenging assay; cited from earlier work

IC50 (washed platelets [1]) | IC50 (washed platelets [2]) | melting point | Compound | activity at 10 µM (A549) | Mean growth percentage at 10 µM (Hep-G2) | Mean growth percentage at 10 µM (MDA-MB231) | Mean growth percentage at 10 µM (SK-BR3) | activity at 10 µM (HeLa) | mean growth percentage (cell growth remaining vs control) at 10 µM (MCF7) | Mean growth percentage at 10 µM (SKMEL28) | Mean growth percentage at 10 µM (SKOV3) | Mean Growth Percentage (GM-6114) | AA (%), percentage of antioxidant activity [3] | DPPH (%) [3] | IC50 [4] | Trolox equivalent antioxidant capacity (TEAC) [4]
437 ± 25 µM | 405 ± 29 µM | 170 to 173 °C | COc1ccc(/C=N/NC(=O)c2c(Nc3ccccc3)nn(CC(O)c3ccccc3)c2N)cc1OCc1ccccc1 (centres unmarked) [13d, (E)-5-amino-N′-(3-(benzyloxy)-4-methoxybenzylidene)-1-(2-hydroxy-2-phenylethyl)-3-(phenylamino)-1H-pyrazole-4-carbohydrazide] | 90.4% | 120% | 93.8% | 97.9% | 96.7% | 108% | 93.9% | 112% | 95.39% | 56.29 ± 1.18% | 43.71 ± 1.18% | – | –
– | – | – | Nc1c(C(F)(F)F)n[nH]c1-c1ccccc1 [IIa] | – | – | – | – | – | – | – | – | – | – | – | 14.1 µM | 1.35
365 ± 28 µM | 387 ± 35 µM | 164 to 166 °C | COC(=O)c1c(NC(=O)c2cc(OC)c(OC)c(OC)c2)n[nH]c1Nc1ccccc1 [compound 14, Methyl 5-(phenylamino)-3-(3,4,5-trimethoxybenzamido)-1H-pyrazole-4-carboxylate] | 35.1% | 67.2% | 57% | 53.8% | 9.45% | 66.1% | 41.5% | 38.5% | 39.31% | 3.62 ± 0.08% | 96.38 ± 0.08% | – | –
249 ± 22 µM | 313 ± 25 µM | 135 to 138 °C | CCOC(=O)c1c(NC(=O)c2cc(OC)c(OC)c(OC)c2)nn(C)c1Nc1ccccc1 [compound 22, Ethyl 1-methyl-5-(phenylamino)-3-(3,4,5-trimethoxybenzamido)-1H-pyrazole-4-carboxylate] | 106% | 102% | 140% | 103% | 109% | 115% | 84.1% | 94.2% | 57.94% | 2.39 ± 0.24% | 97.61 ± 0.24% | – | –
